For the experiment, the system named is H358 cells. Description: Cell activity experiment: activity test of H358 cells (MTT, 5 days). The format is cell-based. To be noted: 5 days incubation, absorbance 492 nm. As to the method: Example: Cell Activity Experiment
1. Cells: H358 purchased from Shanghai EK-Bioscience Biotechnology Co., Ltd.
2. Reagents: RPMI 1640 medium, Tryple, MTT (5 mg/mL), DMSO, and DPBS.
3. Instruments: an incubator at 37° C. and 5% CO2, a UTRAO microplate reader, a biosafety cabinet, a cell counting plate, and an Optec optical microscope.
4. Experimental consumables: 96-well plate Item No.: 3599, and 96-well round-bottomed dispensing plate.
Experimental Steps of Activity Test of H358 Cells:
1. Plating: Cells in the logarithmic growth phase were digested with Tryple and terminated with a fresh medium, and the cells were counted; and the cell concentration was adjusted to 55555 cells/mL with a fresh medium, wherein 90 μL was added to each well, and those on edges were filled with sterile DPBS.
2. The plate was incubated in the incubator at 37° C. and 5% CO2 for 24 h, so that the cells cover the bottom of the well by about 50%.
3. Drug preparation for experimental group: The drug was dissolved in DMSO to prepare a 20 mmol/L stock solution; the stock solution was further diluted with DMSO to 2 mmol/L, which was serially 3-fold diluted to form an […]-concentration gradient, resulting in a 200× serial compound solution; 10 μL of the serial compound solution was taken and added to 190 μLμL of RPMI1640 medium to obtain a 10× serial compound solution; and 10 μL of the 10× compound solution was taken and added to 90 μL 96-well cell culture plate, with three replicates per grade. The concentration gradient of the compound in the 96-well cell culture plate was […], 1.524158 nM, 4.572474 nM, 13.717420 nM, 41.152260 nM, 123.456800 nM, 370.370400 nM, 1111.111000 nM, 3333.333000 nM, and 10000.000000 nM, with 100 μL per well, and the final concentration of DMSO was 0.5%.
The control group contained the same volume of solvent as the experimental group and was diluted with a complete medium, with 100 μL per well.
4. Incubation was carried out for 5 days in an incubator with 5% CO2 at 37° C.
5. After 5 days, 10 μL of an MTT solution (5 mg/mL) was added to each well, and the culture was continued for 4 h.
6. The culture was terminated, and the culture solution was carefully sucked out of the well.
7. 150 μL of dimethyl sulfoxide (DMSO) was added to each of the null wells in the experimental group and the control group; and after shaking at a medium speed for 10 s, the crystal was fully dissolved, and the optical absorbance value thereof was measured at a wavelength of 492 nm.

Molecules are shown by their SMILES.

The results in this text go back to patent US20240109893A1, “PREPARATION AND APPLICATION METHOD OF HETEROCYCLIC COMPOUNDS AS KRAS INHIBITOR” (SHANGHAI KECHOW PHARMA, INC., priority 2020, published 2024).

Regarding `C=C(F)C(=O)N1CCN(c2nc(OCC3(CN4CCCC4)CC3)nc3c(F)c(-c4cccc5c4C4CC4C5)ncc23)C[C@@H]1CC#N` (single isomer, unassigned) [Example 867], the IC50 (Homo sapiens, NCI-H358, 120 h) amounted to 5.9 nM. With `C=C(F)C(=O)N1CCN(c2nc(OCC3(CN4CCCC4)CC3)nc3c(F)c(-c4cccc5c4C4CC4C5)ncc23)C[C@@H]1CC#N` (single isomer, unassigned) [Example 868], the midpoint of inhibition, the IC50, lay at 6.6 nM. Under “Homo sapiens, NCI-H358, 120 h”, `C=C(F)C(=O)N1CCN(c2nc(OCC3(CN4CCCC4)CC3)nc3c(F)c(-c4cccc5c4C4CC4C5)ccc23)C[C@@H]1CC#N` (single isomer, unassigned) [Example 870] had an IC50 of 7.2 nM. Consider `C=C(F)C(=O)N1CCN(c2nc(OCC3(CN4CCCC4)CC3)nc3c(F)c(-c4cccc5c4C4CC4C5)ccc23)C[C@@H]1CC#N` (single isomer, unassigned) [Example 871], for which it took 9 nM to reach half-maximal inhibition (IC50). For the molecule `C=CC(=O)N1CCN(c2nc(OC[C@@H]3CCCN3C)nc3c(F)c(-c4cccc5c4CC4CC54)ncc23)C[C@@H]1CC#N` (single isomer, unassigned) [Example 874], the midpoint of inhibition, the IC50, lay at 429 nM.

`C=CC(=O)N1CCN(c2nc(OC[C@@]34CCCN3C[C@H](F)C4)nc3c(F)c(-c4cccc5c4CC4CC54)ncc23)C[C@@H]1CC#N` (single isomer, unassigned) [Example 877] displayed a concentration for half-maximal inhibition (IC50) of 9.5 nM. `C=CC(=O)N1CCN(c2nc(OC[C@@]34CCCN3C[C@H](F)C4)nc3c(F)c(-c4cccc5c4CC4CC54)ncc23)C[C@@H]1CC#N` (single isomer, unassigned) [Example 878] came in with an IC50 (Homo sapiens, NCI-H358, 120 h) of 236 nM. `C=C(F)C(=O)N1CCN(c2nc(OC[C@@]34CCCN3C[C@H](F)C4)nc3c(F)c(-c4cccc5c4CC4CC54)ncc23)C[C@@H]1CC#N` (single isomer, unassigned) [Example 880]: half-maximal inhibition (IC50) was put at 433 nM. On the same count and under the same terms, with `C=CC(=O)N1CCN(c2nc(OC[C@@H]3CCCN3C)nc3c(F)c(-c4cccc5c4CC4CC54)ccc23)C[C@@H]1CC#N` (single isomer, unassigned) [Example 882] the figure was 550 nM; with `C=C(F)C(=O)N1CCN(c2nc(OC[C@@H]3CCCN3C)nc3c(F)c(-c4cccc5c4CC4CC54)ccc23)C[C@@H]1CC#N` (single isomer, unassigned) [Example 884], 1260 nM; with `C=C(F)C(=O)N1CCN(c2nc(OC[C@@]34CCCN3C[C@H](F)C4)nc3c(F)c(-c4cccc5c4CC4CC54)ccc23)C[C@@H]1CC#N` (single isomer, unassigned) [Example 888], 292 nM. For `C=C(F)C(=O)N1CCN(c2nc(OC[C@@]34CCCN3C[C@H](F)C4)nc3c(OC4CC4)c(-c4cccc5c4CC4CC54)c(Cl)cc23)C[C@@H]1CC#N` (single isomer, unassigned) [Example 918], 40 nM corresponded to half-maximal inhibition (IC50). The molecule `C=C(F)C(=O)N1CCN(c2nc(OC[C@@]34CCCN3C[C@H](F)C4)nc3c(OC4CC4)c(-c4cccc5c4CC4CC54)c(Cl)cc23)C[C@@H]1CC#N` (single isomer, unassigned) [Example 919] yielded an IC50 of 1680 nM. Consider `C=C(F)C(=O)N1CCN(c2nc(OC[C@@H]3CCCN3C)nc3c(F)c(-c4cccc5c4CCCC5)ncc23)C[C@@H]1CC#N` [Example 4, 2-((S)-4-(8-fluoro-2-(((S)-1-methylpyrrolidin-2-yl)methoxy)-7-(5,6,7,8-tetrahydronaphthalen-1-yl)pyridino[4,3-d]pyrimidin-4-yl)-1-(2-fluoroacryloyl)piperazin-2-yl)acetonitrile], for which the IC50 (Homo sapiens, NCI-H358, 120 h) was found to be 70 nM. `C=CC(=O)N1CCN(c2nc(OC[C@@H]3C[C@@H](F)CN3C)nc3c(F)c(-c4cccc5c4CCCC5)ncc23)C[C@@H]1CC#N` [Example 5, 2-((S)-1-acryloyl-4-(8-fluoro-2-(((2S,4R)-4-fluoro-1-methylpyrrolidin-2-yl)methoxy)-7-(5,6,7,8-tetrahydronaphthalen-1-yl)pyridino[4,3-d]pyrimidin-4-yl)piperazin-2-yl)acetonitrile] showed an IC50 (Homo sapiens, NCI-H358, 120 h) of 20 nM. On to `C=C(F)C(=O)N1CCN(c2nc(OC[C@@H]3C[C@@H](F)CN3C)nc3c(F)c(-c4cccc5c4CCCC5)ncc23)C[C@@H]1CC#N` [Example 6], for which the IC50 (Homo sapiens, NCI-H358, 120 h) is 90 nM. `C=CC(=O)N1CCN(c2nc(OC[C@@]34CCCN3C[C@H](F)C4)nc3c(F)c(-c4cccc5c4CCCC5)ncc23)C[C@@H]1CC#N` [Example 7, 2-((S)-1-acryloyl-4-(8-fluoro-2-(((2R,7aS)-2-fluorotetrahydro-1H-pyrrolizin-7a(5H)-yl)methoxy)-7-(5,6,7,8-tetrahydronaphthalen-1-yl)pyridino[4,3-d]pyrimidin-4-yl)piperazin-2-yl)acetonitrile] registered an IC50 (Homo sapiens, NCI-H358, 120 h) of 0.07 nM.

As for `C=C(F)C(=O)N1CCN(c2nc(OC[C@@]34CCCN3C[C@H](F)C4)nc3c(F)c(-c4cccc5c4CCCC5)ncc23)C[C@@H]1CC#N` [Example 8, 2-((S)-4-(8-fluoro-2-(((2R,7aS)-2-fluorotetrahydro-1H-pyrrolizin-7a(5H)-yl)methoxy)-7-(5,6,7,8-tetrahydronaphthalen-1-yl)pyridino[4,3-d]pyrimidin-4-yl)-1-(2-fluoroacryloyl)piperazin-2-yl)acetonitrile], the IC50 (Homo sapiens, NCI-H358, 120 h) is 0.64 nM.

Turning to `C=CC(=O)N1CC[C@@H]2[C@H]1CN2c1nc(OC[C@@H]2CCCN2C)nc2c(F)c(-c3cccc4c3CCCC4)ncc12` [Example 9, 1-((1R,5R)-6-(8-fluoro-2-(((S)-1-methylpyrrolidin-2-yl)methoxy)-7-(5,6,7,8-tetrahydronaphthalen-1-yl)pyridino[4,3-d]pyrimidin-4-yl)-2,6-diazabicyclo[3.2.0]hept-2-yl)prop-2-en-1-one], the IC50 (Homo sapiens, NCI-H358, 120 h) is 10 nM. Take `C=CC(=O)N1CC[C@@H]2[C@H]1CN2c1nc(OC[C@@H]2C[C@@H](F)CN2C)nc2c(F)c(-c3cccc4c3CCCC4)ncc12` [Example 11]: half-maximal inhibition (Homo sapiens, NCI-H358, 120 h) (IC50) required 26 nM. `C=C(F)C(=O)N1CC[C@@H]2[C@H]1CN2c1nc(OC[C@@H]2C[C@@H](F)CN2C)nc2c(F)c(-c3cccc4c3CCCC4)ncc12` [Example 12]: it took 80 nM to reach half-maximal inhibition (Homo sapiens, NCI-H358, 120 h) (IC50).

On to `C=CC(=O)N1CC[C@@H]2[C@H]1CN2c1nc(OCC23CCCN2CCC3)nc2c(F)c(-c3cccc4c3CCCC4)ncc12` [Example 13, 1-((1R,5R)-6-(8-fluoro-2-((tetrahydro-1H-pyrrolizin-7a(5H)-yl)methoxy)-7-(5,6,7,8-tetrahydronaphthalen-1-yl)pyridino[4,3-d]pyrimidin-4-yl)-2,6-diazabicyclo[3.2.0]hept-2-yl)prop-2-en-1-one], for which, under “Homo sapiens, NCI-H358, 120 h”, the IC50 was determined as 5 nM. Still for that read-out and setting: the figure for `C=C(F)C(=O)N1CC[C@@H]2[C@H]1CN2c1nc(OCC23CCCN2CCC3)nc2c(F)c(-c3cccc4c3CCCC4)ncc12` [Example 14, 2-fluoro-1-((1R,5R)-6-(8-fluoro-2-((tetrahydro-1H-pyrrolizin-7a(5H)-yl)methoxy)-7-(5,6,7,8-tetrahydronaphthalen-1-yl)pyridino[4,3-d]pyrimidin-4-yl)-2,6-diazabicyclo[3.2.0]hept-2-yl)prop-2-en-1-one] is 30 nM; for `C=CC(=O)N1CC[C@@H]2[C@H]1CN2c1nc(OC[C@@]23CCCN2C[C@H](F)C3)nc2c(F)c(-c3cccc4c3CCCC4)ncc12` [Example 15] it is 3 nM; for `C=C(F)C(=O)N1CC[C@@H]2[C@H]1CN2c1nc(OC[C@@]23CCCN2C[C@H](F)C3)nc2c(F)c(-c3cccc4c3CCCC4)ncc12` [Example 16] it is 5 nM.
